Source: patent US7998965B2, “Glutamate aggrecanase inhibitors” (Wyeth LLC, priority 2005, dated 2011)

Target: T1, purified recombinant human Aggrecanase-1 (rAgg1) (Homo sapiens, UniProt O75173)
T1 sequence (O75173 213-837): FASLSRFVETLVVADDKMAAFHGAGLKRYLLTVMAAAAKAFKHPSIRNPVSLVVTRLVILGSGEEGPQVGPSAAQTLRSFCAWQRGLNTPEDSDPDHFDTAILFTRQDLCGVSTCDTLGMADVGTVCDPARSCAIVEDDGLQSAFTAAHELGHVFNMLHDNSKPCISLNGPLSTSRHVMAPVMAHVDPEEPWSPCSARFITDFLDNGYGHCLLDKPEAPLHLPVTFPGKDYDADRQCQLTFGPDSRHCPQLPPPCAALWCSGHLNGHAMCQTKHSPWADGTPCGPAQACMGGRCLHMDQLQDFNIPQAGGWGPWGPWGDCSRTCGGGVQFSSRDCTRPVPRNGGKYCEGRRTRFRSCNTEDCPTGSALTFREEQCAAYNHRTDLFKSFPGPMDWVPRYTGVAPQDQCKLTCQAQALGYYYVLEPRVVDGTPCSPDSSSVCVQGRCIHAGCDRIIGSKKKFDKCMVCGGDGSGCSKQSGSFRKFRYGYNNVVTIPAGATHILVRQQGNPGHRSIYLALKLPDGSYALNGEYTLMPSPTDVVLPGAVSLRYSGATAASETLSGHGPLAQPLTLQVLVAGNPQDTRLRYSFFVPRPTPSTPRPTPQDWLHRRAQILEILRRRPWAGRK
Assay: In vitro fluorescence screen for Aggrecanase-1 inhibitors
Format: biochemical
Conditions: Table 1; for IC50: read-out: Agg1 IC50

SMILES | IC50 | Agg1 % @ concentration (@ 7,500 (nM))
CC(C)(C)CC(C)(C)NC(=O)[C@H](CCC(=O)O)NC(=O)c1ccc(-c2ccccc2)cc1 [Example 6C, N^2-(biphenyl-4-ylcarbonyl)-N^1-(1,1,3,3-tetramethylbutyl)-L-α-glutamine] | 150 nM | –
Nc1ccc(CNC(=O)[C@H](CCC(=O)O)NC(=O)c2ccc(-c3ccccc3)cc2)cc1 [Example 8AAAA, N^1-(4-aminobenzyl)-N^2-(1,1′-biphenyl-4-ylcarbonyl)-L-α-glutamine] | 100 nM | –
CC(C)(Cc1ccc(Cl)cc1)NC(=O)[C@H](CCC(=O)O)NC(=O)c1ccc2c(c1)Cc1ccccc1-2 [Example 6E, N^1-[2-(4-chlorophenyl)-1,1-dimethylethyl]-N^2-(9H-fluoren-2-ylcarbonyl)-L-α-glutamine] | 56 nM | –
CCN(CC)C(=O)[C@H](CCC(=O)O)NC(=O)c1ccc(-c2ccccc2)cc1 [Example 8EEE, N^2-(biphenyl-4-ylcarbonyl)-N^1,N^1-diethyl-L-α-glutamine] | 7900 nM | –
Cc1cccc(CNC(=O)[C@H](CCC(=O)O)NC(=O)c2ccc(-c3ccccc3)cc2)c1C [Example 8HH, N^2-(1,1′-biphenyl-4-ylcarbonyl)-N^1-(2,3-dimethylbenzyl)-L-α-glutamine] | 160 nM | –
COc1cccc(CNC(=O)[C@H](CCC(=O)O)NC(=O)Cc2ccc(-c3ccccc3)cc2)c1 [Example 8PPPPPP, N^2-(1,1′-biphenyl-4-ylacetyl)-N^1-(3-methoxybenzyl)-L-α-glutamine] | > 33000 nM | –
O=C(O)CC[C@H](NC(=O)c1ccc(-c2ccc(NC(=O)c3ccccc3)cc2)cc1)C(=O)NCc1ccccc1 [Example 24C, N^2-{[4′-(benzoylamino)-1,1′-biphenyl-4-yl]carbonyl}-N^1-benzyl-L-α-glutamine] | ~300 nM | –
O=C(O)CC[C@H](NC(=O)c1ccc(-c2ccccc2)cc1)C(=O)NCc1cc(F)cc(F)c1 [Example 8AA, N^2-(1,1′-biphenyl-4-ylcarbonyl)-N^1-(3,5-difluorobenzyl)-L-α-glutamine] | 370 nM | –
C#Cc1ccc(-c2cccc(CNC(=O)[C@H](CCC(=O)O)NC(=O)c3ccc(-c4ccccc4)cc3)c2)cc1 [Example 10P, N^2-(biphenyl-4-ylcarbonyl)-N^1-[(4′-ethynylbiphenyl-3-yl)methyl]-L-α-glutamine] | 700 nM | –
O=C(O)CC[C@H](NC(=O)c1ccc(-c2ccccc2)cc1)C(=O)NCc1ccccc1 [Example 8EEEE, N^1-benzyl-N^2-(1,1-biphenyl-4-ylcarbonyl)-L-α-glutamine] | 400 nM | –
O=C(O)CC[C@H](NC(=O)c1cccc2c1Cc1ccccc1-2)C(=O)NCCCc1ccccc1 [Example 8JJJJ, N^2-(9H-fluoren-1-ylcarbonyl)-N^1-(3-phenylpropyl)-L-α-glutamine] | > 50000 nM | –
O=C(O)CC[C@H](NC(=O)c1ccc(Nc2ncccn2)cc1)C(=O)NCc1ccccc1 [Example 8UUUUUU, N^1-benzyl-N^2-[4-(pyrimidin-2-ylamino)benzoyl]-L-α-glutamine] | 4000 nM | –
O=C(O)CC[C@H](NC(=O)c1ccc(-c2ccc(OCC3CCC3)cc2)cc1)C(=O)NCc1ccccc1 [Example 15C, N^1-benzyl-N^2-{[4′-(cyclobutylmethoxy)-1,1′-biphenyl-4-yl]carbonyl}-L-α-glutamine] | – | 50% @
O=Cc1ccc(-c2cccc(CCNC(=O)[C@H](CCC(=O)O)NC(=O)c3ccc(-c4ccccc4)cc3)c2)cc1 [Example 10J, N^2-(biphenyl-4-ylcarbonyl)-N^1-[2-(4′-formylbiphenyl-3-yl)ethyl]-L-α-glutamine] | 260 nM | –
O=C(O)CC[C@H](NC(=O)c1ccc(Oc2ccccc2)cc1)C(=O)NCCCc1ccccc1 [Example 8TTTTTT, N^2-(4-phenoxybenzoyl)-N^1-(3-phenylpropyl)-L-α-glutamine] | 17300 nM | –
O=C(O)CC[C@H](NC(=O)c1ccc(-c2ccccc2)cc1)C(=O)NCc1ccccc1F [Example 8ZZ, N^2-(1,1′-biphenyl-4-ylcarbonyl)-N^1-(2-fluorobenzyl)-L-α-glutamine] | 210 nM | –
